Data on three molecules can be found in patent publication US10334869B2, “Method for increasing concentration of avenanthramides in oats” (HER MAJESTY THE QUEEN IN RIGHT OF CANADA, AS REPRESENTED BY …, priority 2009, dated 2019).

Read-outs that look alike come from different tables or passages of the source.

One data set concerns dormant oat VAO-48. Nature of the data set: CaCl2 in anaerobic steep water, avenanthramide accumulation during false malting of VAO-48. It is filed as in vivo. Particulars: for All others / Avenanth A / Avenanth B / Avenanth C / Total Avenanth: four days 30° C., avenanthramide A equivalents. How it is done:
(§1) In a third method, samples (10 μl) were injected into a C18 reversed-phase column (Zorbax Stable™ bond C18, 3.5 μm, 4.6 mm×150 mm) maintained at 30° C. Solvents for HPLC were A: methanol, B: water and C: 0.5M formic acid. The solvent gradient (vol. %) consisted of 45A:45B:10C, linearly increasing to 55A:35B:10C over 24 min, and linearly increasing to 70A:20B:10C over 9 min, then reaching 95A:5C over 3 min and holding for 3 min. The solvent gradient was brought back to original conditions over 3 min, allowed equilibrating for 3 min.
(§2) Individual avenanthramides were quantified by determining the peak areas at 330 nm relative to an external authentic avenanthramide A standard and expressed as avenanthramide A weight equivalents. Total avenanthramides were calculated by summing all the individual avenanthramide quantities calculated as avenanthramide A weight equivalents and expressed as parts per million (ppm) avenanthramide A equivalents on a dry weight basis.
25 g samples of the hulless, hairless, dormant oat VAO-48 was anaerobically steeped in either water or various concentrations of USP-grade CaCl2.(H2O)2 solutions at 35° C. After steeping for 18 hours and air drying in a seed dryer for about four hours, the seeds were surface sterilized as above then ‘false malted” using Petri dishes (150×50 mm) in the dark at 30° C. in a controlled temperature oven for four days. The germination rate in all cases was less than 1% after four days. After malting the seeds were removed, dried at room temperature (forced air) for four hours then brought to constant weight by drying at 37° C. for ˜40 hours and stored at −20° C. until analyzed for avenanthramide content by the third method described above (μg avenanthramide A equivalents/g dry wt=ppm avenanthramide A), and compared to un-malted material.

The next data set deals with non-dormant oat VAO-22. Nature of the data set: CaCl2 in anaerobic steep water, avenanthramide accumulation during false malting of VAO-22. The format is in vivo. Particulars: for All others / Avenanth A / Avenanth B / Avenanth C / Total Avenanth: four days 30° C., avenanthramide A equivalents. How it is done:
as §1, §2
A 1,300 g sample of VAO-22 hulless, hairless, non-dormant oat breeder's seed was used (84% germination rate after four days). The seeds were then heat treated as in Example 5. A 25 g sample was used as a control representing the un-malted seeds and stored at −20° C. until analyzed. The rest of the heat treated material was anaerobically steeped at 35° C. in either 1.0% or 2.0% Ca Cl2.(H2O)2 for 18 hours and air drying in a seed dryer for about four hours. The seeds were then surface sterilized as above and ‘false malted” in the dark at 30° C. in a controlled temperature oven for four days using Petri dishes (150×50 mm). After malting the seeds were removed, dried at room temperature (forced air) for four hours then brought to constant weight by drying at 37° C. for ˜40 hours and stored at −20° C. until analyzed for avenanthramide content by HPLC using the third method described above (μg avenanthramide A equivalents/g dry wt=ppm avenanthramide A), and compared to un-malted material.

A further data set deals with heat treated oats. Nature of the data set: germination of heat treated oats incubated with gibberellin. It is filed as in vivo, oats (VAO-2). Particulars: 100 ppm gibberellin, 5 days; two-phase dry heated oats.
Data set [1] has as its system smooth muscle cells. Particulars: about 40 ppm; rat; cited from earlier work.
The test system of data set [2] is smooth muscle cells. Particulars: about 40 ppm; human; cited from earlier work.
For data set [3], the system named is colonic cancer cell lines. Particulars: about 20 to 50 ppm; cited from earlier work.
The next data set deals with normal cell lines. Particulars: about 20 to 50 ppm; cited from earlier work.

With `O.O.[Ca+2].[Cl-].[Cl-]` [CaCl2, CaCl2.(H2O)2], in the data set with dormant oat VAO-48 (0.05% CaCl2 in steeping water), the All others is on record as 287.3 ± 30.9 ppm, the “Avenanth A” value is listed as 37.7 ± 5.6 ppm, the “Avenanth B” value is 122.0 ± 14.8 ppm and the “Avenanth C” value is given as 81.5 ± 9.4 ppm. Besides, the “Total Avenanth” value in the data set with dormant oat VAO-48 (0.05% CaCl2 in steeping water) turned out to be 528.4 ± 30.9 ppm. In the data set on dormant oat VAO-48 (0.10% CaCl2 in steeping water), the All others is on record as 251.4 ± 10.4 ppm, the “Avenanth A” value amounted to 27.2 ± 11.4 ppm, the “Avenanth B” value is 113.4 ± 5.8 ppm and the “Avenanth C” value was found to be 75.7 ± 4.6 ppm. In the data set on dormant oat VAO-48 (0.10% CaCl2 in steeping water), the “Total Avenanth” value is 467.7 ± 32.1 ppm. In the data set on dormant oat VAO-48 (0.50% CaCl2 in steeping water), the All others is 400.1 ± 0.3 ppm, the “Avenanth A” value stood at 59.9 ± 1.1 ppm, the “Avenanth B” value is 155.3 ± 2.3 ppm and the “Avenanth C” value amounted to 126.4 ± 2.8 ppm. Besides, the “Total Avenanth” value in the data set on dormant oat VAO-48 (0.50% CaCl2 in steeping water) stood at 741.7 ± 6.5 ppm. The “overall increase of avenanthramide concentration over un-malted seeds” value with dormant oat VAO-48 (1% Ca+2) is given as “about 23.6 fold”. Also, in the data set with dormant oat VAO-48 (1.0% CaCl2 in steeping water), the All others is recorded as 401.1 ± 15.4 ppm, the “Avenanth A” value came to 68.7 ± 3.3 ppm, the “Avenanth B” value came out at 149.0 ± 8.2 ppm and the “Avenanth C” value was found to be 138.1 ± 4.0 ppm. For the same molecule, the “Total Avenanth” value in the data set with dormant oat VAO-48 (1.0% CaCl2 in steeping water) amounted to 757.0 ± 30.9 ppm. In the data set with dormant oat VAO-48 (1% added Ca+2), the “increase of avenanthramide concentration over steeping with no added Ca+2” value was “approximately 1.7 fold”. Further, in the data set on non-dormant oat VAO-22 (1% CaCl2), the “avenanthramide B fold over initial value” was 23.4 fold, the “avenanthramide B increase over initial value” is reported as 2,240%, the “avenanthramide C fold over initial” value is on record as 28.4 fold and the “avenanthramide C increase over initial” value was 2,735%. In the data set on non-dormant oat VAO-22 (1% CaCl2), the “total avenanthramide fold over initial” value was 24.1 fold and the “total avenanthramide levels relative to initial” value is on record as 2,307%. In addition, in the data set with non-dormant oat VAO-22 (1.0% CaCl2 in steeping water), the All others is 360.1 ± 2.4 ppm, the “Avenanth A” value came out at 27.0 ± 0.22 ppm, the “Avenanth B” value is 79.7 ± 0.26 ppm and the “Avenanth C” value is 65.2 ± 0.26 ppm. The “Total Avenanth” value with non-dormant oat VAO-22 (1.0% CaCl2 in steeping water) is 532.0 ± 3.16 ppm. In the data set with non-dormant oat VAO-22 (2% CaCl2), the “avenanthramide B fold over initial” value is listed as 30.3 fold, the “avenanthramide B increase over initial value” is given as 2,930%, the “avenanthramide C fold over initial” value turned out to be 43.5 fold and the “avenanthramide C increase over initial” value was 4,252%. Besides, in the data set on non-dormant oat VAO-22 (2% CaCl2), the “total avenanthramide fold over initial” value is 31.9 fold and the “total avenanthramide levels relative to initial” value is on record as 3,190%. Further, in the data set with non-dormant oat VAO-22 (2.0% CaCl2 in steeping water), the All others is listed as 461.7 ± 8.8 ppm, the “Avenanth A” value came to 46.7 ± 0.08 ppm, the “Avenanth B” value was 103.0 ± 0.06 ppm and the “Avenanth C” value is 100.1 ± 0.38 ppm. The “Total Avenanth” value in the data set with non-dormant oat VAO-22 (2.0% CaCl2 in steeping water) turned out to be 711.4 ± 9.32 ppm.
On to gibberellin, for which the germination entry in the data set on heat treated oats is “almost complete restoration of germination”.
For `O=C(/C=C/c1ccc(O)c(O)c1)Nc1ccc(O)cc1C(=O)O` [avenanthramide C], in the data set with smooth muscle cells [1], the nitric oxide production result is “inhibit” and the “proliferation of smooth muscle cells” value is “inhibit the proliferation”. Also, in the data set with smooth muscle cells [2], the nitric oxide production result is recorded as “inhibit” and the “proliferation of smooth muscle cells” value was “inhibit the proliferation”. Moreover, in data set [3], the anti-inflammatory activity result is on record as “anti-inflammatory” and the anti-proliferative activity result is “anti-proliferative activity”. Moreover, in the data set with normal cell lines, the “effect on normal cell lines” value is on record as “no effect”.
